Key:
TBK1 = TBK1 (Homo sapiens (Human), UniProt Q9UHD2); assay: Eurofins IC50Profiler radiometric kinase assay, TBK1; type: biochemical; conditions: 9 semilog concentrations
Excerpt: (§1) A proportion of the compounds of the present invention are subjected to kinase profile screening (KinaseProfiler™)) and enzymatic inhibitory activity (IC50Profiler™)) assay by entrusting Eurofins company (http://www.eurofins.com). Besides the kinases in the JAK family, the kinases that have been screened for their activity also include most Group 3F and Group 4 kinases (ITK, BLK, TBK1, VEGFRs, ERBBs, etc.), and blood system related kinases (Zhang J. et al. 2009, Nat. Rev. Cancer., 9: 28-39). The concentration of the test compound for kinase profile screening is 1 μM, and a gradient of 9 semilog concentration gradients are used to determine IC50. Detection is carried out according to standard procedure of Eurofins Company. Briefly, according to the requirements of different kinase reactions, 0.2 μL test compound (50 μM, dissolved in dimethyl sulfoxide (DMSO)) is added to reaction buffer containing specific kinase (the buffer system containing 20 mM MOPS, 1 mM EDTA, 0.01% Brij-35, 5% Glycerol, 0.1% β-mercaptoethanol, 1 mg/mL BSA, or 50 mM TRIS, 0.1 mM EGTA, 0.1 mM Na3VO4, 0.1% β-mercaptoethanol, 1 mg/mL BSA, based on the type of kinase used). Subsequently, a kinase specific substrate at a final concentration of 50 μM (specific substrate used for specific kinase), 10 mM Mg Acetate and isotope-labeled γ-^33P ATP (radio-activity of about 500 cpm/pmol) are sequentially added to a total volume of 10 μL for the reaction system. After incubation at room temperature for 40 min, the reaction is terminated by adding 3% phosphoric acid solution. The mixture is then transferred to a filter-type low temperature spray dryer (P30 filtermat), and washed by 75 mM phosphoric acid solution for 3 times and by methanol once. After drying, radio-activity is detected. For specific procedure, see the standard procedure provided by Eurofins Company: http://www.eurofins.com/media/9724077/kinaseprofiler_assay_protocol_guide_eurofins_v64.pdf).

Flt1 = Flt1 (Homo sapiens (Human), UniProt P17948); assay: Eurofins IC50Profiler radiometric kinase assay, Flt1; type: biochemical; conditions: 9 semilog concentrations
Chain of Flt1 (P17948 27-1338, species assumed): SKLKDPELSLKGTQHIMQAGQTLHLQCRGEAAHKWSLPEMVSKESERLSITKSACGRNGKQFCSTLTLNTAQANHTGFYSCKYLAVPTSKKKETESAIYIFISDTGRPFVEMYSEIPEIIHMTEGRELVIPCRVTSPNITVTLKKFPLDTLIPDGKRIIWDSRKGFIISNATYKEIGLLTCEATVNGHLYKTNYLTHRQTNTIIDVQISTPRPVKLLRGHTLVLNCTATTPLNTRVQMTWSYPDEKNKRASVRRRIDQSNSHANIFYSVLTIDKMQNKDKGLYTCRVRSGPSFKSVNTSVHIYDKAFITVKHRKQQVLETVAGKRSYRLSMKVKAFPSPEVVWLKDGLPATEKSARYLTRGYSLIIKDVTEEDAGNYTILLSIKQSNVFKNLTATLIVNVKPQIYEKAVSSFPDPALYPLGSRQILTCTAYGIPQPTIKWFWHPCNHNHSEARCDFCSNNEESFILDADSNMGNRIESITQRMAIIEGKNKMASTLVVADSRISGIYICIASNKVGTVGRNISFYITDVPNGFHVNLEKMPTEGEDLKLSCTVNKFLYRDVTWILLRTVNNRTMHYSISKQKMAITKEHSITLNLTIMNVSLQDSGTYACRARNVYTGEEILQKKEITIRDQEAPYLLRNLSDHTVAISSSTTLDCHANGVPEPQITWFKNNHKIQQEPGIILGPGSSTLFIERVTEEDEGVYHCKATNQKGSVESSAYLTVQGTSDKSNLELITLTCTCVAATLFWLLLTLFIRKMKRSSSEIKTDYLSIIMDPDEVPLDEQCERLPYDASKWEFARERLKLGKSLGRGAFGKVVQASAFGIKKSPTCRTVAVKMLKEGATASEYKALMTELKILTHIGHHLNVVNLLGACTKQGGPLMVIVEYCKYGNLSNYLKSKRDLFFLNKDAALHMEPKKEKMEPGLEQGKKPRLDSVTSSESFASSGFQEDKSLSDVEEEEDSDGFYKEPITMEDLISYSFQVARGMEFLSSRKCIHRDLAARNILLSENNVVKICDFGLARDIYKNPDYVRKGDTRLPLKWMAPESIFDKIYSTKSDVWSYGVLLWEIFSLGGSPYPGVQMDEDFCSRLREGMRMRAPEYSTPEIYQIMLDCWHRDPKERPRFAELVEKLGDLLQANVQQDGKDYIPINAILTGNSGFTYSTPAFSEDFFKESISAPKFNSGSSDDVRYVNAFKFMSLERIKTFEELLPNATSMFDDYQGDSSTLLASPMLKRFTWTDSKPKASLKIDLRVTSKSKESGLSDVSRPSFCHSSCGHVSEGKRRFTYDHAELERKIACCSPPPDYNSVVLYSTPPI
Excerpt: as §1

[1] = test system: IL-2/JAK1 & 3/STAT5 (hPBC); assay: Intracellular activity assay, IL-2 induced STAT5 phosphorylation in hPBC; type: cell-based; conditions: Homo sapiens; inhibition of STAT5 phosphorylation, activated hPBC, IL-2 10 ng/mL
Excerpt: (§2) In this experiment, western blot (WB) and flow cytometry are used to evaluate the intracellular activities of the test compounds by comparing the relative levels of the signals of phosphorylated and non-phosphorylated STATs in 5 cell models, including U937, THP-1, CTLL-2, UT-7/EPO and activated human periphery blood cell (hPBC). The primary antibody and secondary antibody used in WB hybridization in this experiment are purchased from Cell Signaling Company (http://www.cellsignal.com). The fluorescence-labeled antibodies used in flow cytometry are purchased from eBiosciences Company (http://www.ebioscience.com).
Cytokine IL-2 dependent proliferation is formed after activation by co-stimulation of human periphery blood cell (hPBC) with CD3 antibody. The growth signal pathway is mediated by the heterodimer of JAK1/3 and induces the phosphorylation of downstream STAT5. The intracellular inhibitory activity of the compounds on JAK1/3 can be evaluated by detecting the change of the phosphorylation level of STAT5.
(§3) (1) Treatment by the compound: the experiment is carried out in a 6-well plate. […]
(§4) (2) Cell fixation and fluorescence labeling: the cells are fixed using paraformaldehyde (30 min), and subsequently treated for membrane permeability in chilled methanol (15 min). […]
(§5) (3) Detection by flow cytometry: the detection is carried out using Guava® easyCyte flow cytometer according to the instruction. The median fluorescent intensity (MFI) of a sample is detected using an appropriate cell population. On such a basis, the relative signal intensities are calculated for the phosphorylated STATs treated by the compounds at different concentrations by reference to the signal of the negative (with no factor stimulation) and the positive control (with both factor stimulation and solvent control) in the experiment, so that the IC50 of the compound for the inhibitory activity on STATs phosphorylation can be evaluated.

JAK1 = JAK1 (Homo sapiens (Human), UniProt P23458); assay: Eurofins IC50Profiler radiometric kinase assay, JAK1; type: biochemical; conditions: 9 semilog concentrations
Chain of JAK1 (P23458 whole entry, species assumed): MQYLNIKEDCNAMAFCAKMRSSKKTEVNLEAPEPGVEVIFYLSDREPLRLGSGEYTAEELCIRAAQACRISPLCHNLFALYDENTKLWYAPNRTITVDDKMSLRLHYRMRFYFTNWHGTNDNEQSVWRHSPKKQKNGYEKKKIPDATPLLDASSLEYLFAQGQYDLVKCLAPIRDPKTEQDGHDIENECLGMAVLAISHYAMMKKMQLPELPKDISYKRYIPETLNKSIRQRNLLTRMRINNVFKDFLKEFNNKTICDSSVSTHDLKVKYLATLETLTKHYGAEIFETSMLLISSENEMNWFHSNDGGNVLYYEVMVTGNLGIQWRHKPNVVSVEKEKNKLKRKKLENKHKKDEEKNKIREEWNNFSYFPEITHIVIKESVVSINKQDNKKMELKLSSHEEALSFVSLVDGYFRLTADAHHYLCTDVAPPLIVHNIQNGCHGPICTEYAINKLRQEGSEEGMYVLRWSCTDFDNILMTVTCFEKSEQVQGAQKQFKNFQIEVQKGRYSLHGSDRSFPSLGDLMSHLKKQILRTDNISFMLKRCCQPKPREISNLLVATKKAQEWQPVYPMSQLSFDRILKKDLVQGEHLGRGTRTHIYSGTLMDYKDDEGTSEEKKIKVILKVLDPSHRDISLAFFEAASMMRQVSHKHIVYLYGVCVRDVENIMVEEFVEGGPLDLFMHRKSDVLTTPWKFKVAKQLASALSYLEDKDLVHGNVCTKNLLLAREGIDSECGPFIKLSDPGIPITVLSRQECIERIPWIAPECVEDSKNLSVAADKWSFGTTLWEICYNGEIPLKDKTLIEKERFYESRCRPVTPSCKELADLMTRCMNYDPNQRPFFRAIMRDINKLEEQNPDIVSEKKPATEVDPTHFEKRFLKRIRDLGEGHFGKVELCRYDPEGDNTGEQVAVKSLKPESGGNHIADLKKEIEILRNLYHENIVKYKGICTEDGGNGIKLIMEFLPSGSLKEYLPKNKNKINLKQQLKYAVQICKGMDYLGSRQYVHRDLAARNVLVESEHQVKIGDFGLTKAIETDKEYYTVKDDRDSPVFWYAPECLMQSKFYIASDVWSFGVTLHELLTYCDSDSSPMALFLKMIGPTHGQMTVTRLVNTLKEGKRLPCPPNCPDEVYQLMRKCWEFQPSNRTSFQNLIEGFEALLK
Excerpt: as §1

EPO/JAK2/STAT5a (UT-7) = assay: Intracellular activity assay, EPO induced STAT5 phosphorylation in UT-7/EPO; type: cell-based; conditions: Homo sapiens, inhibition of STAT5 phosphorylation, EPO 10 ng/mL
Excerpt: as §2
UT-7/EPO is a cell line formed from the marrow of a patient suffering from […] after cultured with EPO induction, and it has obvious response to cytokine EPO. The signal for EPO is transmitted via the homodimer of JAK2 and induces the phosphorylation of downstream STAT5, while a JAK inhibitor suppresses the phosphorylation of STAT5 by suppressing the activity of JAK2. The intracellular inhibitory activity of the compounds on JAK2 can be evaluated by detecting the change of the phosphorylation level of STAT5.
as §3, §4, §5

JAK2 = JAK2 (Homo sapiens (Human), UniProt O60674); assay: Eurofins IC50Profiler radiometric kinase assay, JAK2; type: biochemical; conditions: 9 semilog concentrations
Chain of JAK2 (O60674 whole entry, species assumed): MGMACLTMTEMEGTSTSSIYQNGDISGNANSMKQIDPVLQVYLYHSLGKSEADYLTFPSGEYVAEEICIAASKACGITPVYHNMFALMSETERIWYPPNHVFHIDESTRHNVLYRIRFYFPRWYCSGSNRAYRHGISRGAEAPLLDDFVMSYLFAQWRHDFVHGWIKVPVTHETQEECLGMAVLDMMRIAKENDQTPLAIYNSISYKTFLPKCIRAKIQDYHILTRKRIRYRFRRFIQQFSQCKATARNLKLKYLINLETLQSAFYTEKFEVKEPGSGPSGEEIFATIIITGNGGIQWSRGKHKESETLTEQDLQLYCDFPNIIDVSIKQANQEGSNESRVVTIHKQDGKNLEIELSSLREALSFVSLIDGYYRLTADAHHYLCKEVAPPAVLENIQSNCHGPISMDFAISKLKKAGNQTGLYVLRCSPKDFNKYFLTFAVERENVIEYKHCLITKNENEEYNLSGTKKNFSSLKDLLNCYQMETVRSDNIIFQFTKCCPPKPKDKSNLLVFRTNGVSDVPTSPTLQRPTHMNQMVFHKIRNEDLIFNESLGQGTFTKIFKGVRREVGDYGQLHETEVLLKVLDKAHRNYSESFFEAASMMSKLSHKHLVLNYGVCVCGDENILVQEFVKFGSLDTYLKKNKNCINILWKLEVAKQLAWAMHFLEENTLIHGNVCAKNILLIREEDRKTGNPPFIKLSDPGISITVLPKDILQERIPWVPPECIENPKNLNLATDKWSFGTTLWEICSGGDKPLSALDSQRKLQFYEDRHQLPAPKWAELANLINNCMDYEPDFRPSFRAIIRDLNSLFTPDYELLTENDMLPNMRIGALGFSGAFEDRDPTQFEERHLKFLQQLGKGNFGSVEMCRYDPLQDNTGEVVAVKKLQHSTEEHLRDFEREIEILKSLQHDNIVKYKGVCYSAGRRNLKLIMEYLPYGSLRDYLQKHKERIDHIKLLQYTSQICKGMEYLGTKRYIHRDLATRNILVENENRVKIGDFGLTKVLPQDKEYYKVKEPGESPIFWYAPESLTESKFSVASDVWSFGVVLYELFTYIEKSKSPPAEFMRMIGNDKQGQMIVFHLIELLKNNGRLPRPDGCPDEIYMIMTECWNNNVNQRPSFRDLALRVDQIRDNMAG
Excerpt: as §1

Chain of TBK1 (Q9UHD2 whole entry, species assumed): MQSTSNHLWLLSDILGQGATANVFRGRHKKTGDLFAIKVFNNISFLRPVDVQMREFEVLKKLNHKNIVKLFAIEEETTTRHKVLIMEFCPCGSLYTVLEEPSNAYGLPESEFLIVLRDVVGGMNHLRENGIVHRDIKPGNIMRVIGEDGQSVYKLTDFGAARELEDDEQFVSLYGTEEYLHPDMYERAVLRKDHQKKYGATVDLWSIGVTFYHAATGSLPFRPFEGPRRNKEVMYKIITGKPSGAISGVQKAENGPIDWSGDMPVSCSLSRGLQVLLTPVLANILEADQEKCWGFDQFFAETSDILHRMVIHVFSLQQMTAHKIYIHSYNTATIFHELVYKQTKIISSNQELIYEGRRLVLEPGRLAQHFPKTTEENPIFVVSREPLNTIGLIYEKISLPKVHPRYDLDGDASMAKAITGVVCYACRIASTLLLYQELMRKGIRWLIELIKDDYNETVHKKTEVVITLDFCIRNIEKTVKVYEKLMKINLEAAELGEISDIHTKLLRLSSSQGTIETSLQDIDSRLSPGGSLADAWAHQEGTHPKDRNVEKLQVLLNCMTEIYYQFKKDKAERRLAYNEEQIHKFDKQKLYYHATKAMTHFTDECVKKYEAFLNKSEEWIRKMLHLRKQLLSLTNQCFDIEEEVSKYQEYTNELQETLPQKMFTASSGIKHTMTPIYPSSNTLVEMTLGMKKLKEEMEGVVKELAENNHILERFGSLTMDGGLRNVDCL

SMILES: C=CC(=O)N(C)c1cc(Nc2ncc(Cl)c(NCCCNC(=O)c3ccc(C#N)cc3)n2)ccc1F [Example 7, N-(3-(5-chloro-2-(4-fluoro-3-(N-methylacrylamido)phenylamino)pyrimidinyl-4-amino)propyl)-4-cyano-benzamide]
- IC50 (TBK1): 162 nM
- IC50 (Flt1): 698 nM
- IC50 [1]: 160 nM
- IC50 (JAK1): 105 nM
- IC50 (EPO/JAK2/STAT5a (UT-7)): > 3000 nM
- IC50 (JAK2): 1400 nM

SMILES: C=CC(=O)N(C)c1cc(Nc2ncc(Cl)c(NCCCNC(=O)c3ccc(C(F)(F)F)cc3)n2)ccc1F [Example 22, N-(3-(5-chloro-2-(4-fluoro-3-(N-methylacrylamido)phenylamino)pyrimidinyl-4-amino)propyl)-4-trifluoromethylbenzamide]
- IC50 (TBK1): > 10000 nM
- IC50 (Flt1): > 10000 nM
- IC50 [1]: 200 nM
- IC50 (JAK1): 279 nM
- IC50 (EPO/JAK2/STAT5a (UT-7)): > 3000 nM
- IC50 (JAK2): > 10000 nM

SMILES: C=CC(=O)N(C)c1cc(Nc2ncc(Cl)c(NCCCNC(=O)c3ccc(F)cc3)n2)ccc1F [Example 23, N-(3-(5-chloro-2-(4-fluoro-3-(N-methylacrylamido)phenylamino)pyrimidinyl-4-amino)propyl)-4-fluorobenzamide]
- IC50 (TBK1): 664 nM
- IC50 (Flt1): 1230 nM
- IC50 [1]: 240 nM
- IC50 (JAK1): 173 nM
- IC50 (EPO/JAK2/STAT5a (UT-7)): > 3000 nM
- IC50 (JAK2): 1920 nM

From patent publication US10011571B2, “Preparation method for aromatic heterocyclic compound used as selective JAK3 and/or JAK1 kinase inhibitor and application of aromatic heterocyclic compound” (SHENZHEN CHIPSCREEN BIOSCIENCES, LTD., priority 2014, dated 2018)
